{
  "source": "patent US20230149515A1",
  "about": "“INHIBITION OF SARS-COV-2 VIRAL ENTRY THROUGH ORAL ADMINISTRATION OF L[…] USES THEREOF” (priority 2020, published 2023)",
  "tested_on": "SARS-CoV-2",
  "assay_type": "cell-based",
  "conditions": "positive control; Huh7 cells; FIG. 1 (50 nanomolar Remdesivir)",
  "data": [
    {"smiles": "CCC(CC)COC(=O)[C@H](C)N[P@](=O)(OC[C@H]1O[C@@](C#N)(c2ccc3c(N)ncnn23)[C@H](O)[C@@H]1O)Oc1ccccc1", "note": "[Remdesivir, reference compound]", "values": [
      {"measurement": "efficacy in SARS-CoV-2 infectivity assay", "value": 100, "unit": "%"}
    ]}
  ]
}
